Data from patent US20240018132A1, “5-HYDROXY-1,4-NAPHTHALENEDIONE FOR USE IN THE TREATMENT OF CANCER” (GODAVARI BIOREFINERIES LIMITED, priority 2020, published 2024).

Tests used:
MDAMB231 [1] = experiment: In vitro antiproliferative assay (MTT assay), breast cancer cell line; assay type: cell-based; details: Homo sapiens, MDA-MB-231, 48 h, MTT assay, breast cancer MDAMB231, 48 hrs drug incubation
In short: (§1)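 Compound exposure lasted 48 h at 37 °C in 5% CO2, following a 24 h attachment period; DMSO stocks were 0.1 M. Metabolic reduction of MTT (0.5 mg/ml, 4 h), solubilized in DMSO, gave viability, plotted as log % viability versus log drug concentration.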

PC3 [2] = experiment: In vitro antiproliferative assay (MTT assay), prostate cancer cell line; assay type: cell-based; details: Homo sapiens, PC-3, 48 h, MTT assay, prostate cancer PC3, 48 hrs drug incubation
In short: as §1

MDAMB231 [3] = experiment: Soft agar colony-formation assay, breast cancer; assay type: cell-based; details: for anticancer activity in comparison with cisplatin, soft agar, breast cancer cell line: FIG. 51, MDAMB231; for IC50: Homo sapiens, MDA-MB-231, 168 h, Soft Agar Assay, 1 week, Alamar Blue
Description: (§2) The Soft Agar Colony-formation Assay is an anchorage-independent growth assay in soft agar, which is one of the most stringent assays for detecting malignant transformation of cells. For this assay, malignant cells are cultured with appropriate controls in soft agar medium for 1-2 weeks. Following this incubation period, formed colonies can either be analyzed morphologically using cell stain and quantifying the number of colonies formed.
(§3) Briefly, for Soft Agar Assay a mixture of 50 ul of 2× medium (taken appropriately as per cell line) and 50 ul of 1.2% Bacto Agar were plated on to each well of 96 well micro titer assay plate. 10 ul of cells (of specific plating efficiency pre standardized for respective cell line) were mixed with 20 ul of 2× medium and 30 ul of 0.8% of Bacto Agar and 1.6 ul of drug (of appropriate concentration) in a vial and transferred to the solidified pre layers of the assay plates. The cells were then allowed to grow and form colonies at 37° C. and 5% CO2 for 1 week. An intermittent feeding with 50 ul of appropriate 2× medium was performed after 3 days of experimental set up. 16 ul of Alamar Blue (1.5 mg/ml) was then added to all the wells to quantify the developed colonies. The plates were incubated for 24 hrs at 37° C. Absorbance was then measured at 630 nm. XY graph of log Percent viability was then plotted against log drug concentration.
(§4) Following plating efficiencies were standardized for Soft Agar Assay: […]

PC3 [4] = experiment: Soft agar colony-formation assay, prostate cancer; assay type: cell-based; details: for anticancer activity in comparison with cisplatin, soft agar, prostate cancer cell line: FIG. 52, PC3; for IC50: Homo sapiens, PC-3, 168 h, Soft Agar Assay, 1 week, Alamar Blue
Description: as §2, §3, §4

Human lymphocytes = experiment: Lymphocyte assay (MTT on normal cells); assay type: cell-based; details: human peripheral blood lymphocytes, MTT procedure; for IC50: Lymphocyte
Description: Human lymphocytes were isolated from the peripheral blood. A pure population of lymphocytes was obtained based on differential centrifugation, in which diluted defibrinated blood was layered on a solution of sodium diatrizoate and polysucrose (HiSep LSM 1077) and centrifuged at low speeds for 30 mins.
Procedure: The separation of lymphocytes from fresh defibrinated blood was performed by the procedure described below: • 1. Diluted defibrinated fresh blood was overlaid gradually on (HiSeP LSM1077) and centrifuged at low speed for 30 mins. • 2. The lymphocyte layer (the buffy coat) was carefully removed in a new collection tube. • 3. The buffy coat was given another wash, by the diluent buffer Dulbecco's phosphate buffered saline (D.P.B.S) • 4. The supernatant was discarded and the pellet was resuspended in D.P.B.S. • 5. The viability of cells was checked by Haemocytometer. • 6. Cells with purity and viability of more than 95% were taken for the experiment. • 7. Purified lymphocytes were diluted at a concentration of 0.7 million/ml with sterile D.P.B.S and MTT procedure was performed exactly as described earlier.

MDAMB231 [5] = experiment: In vitro sphere-forming assay (cancer stem cells), Mammosphere media; details: for viability at 0.0025 µM / viability at 0.025 µM / viability at 0.25 µM / viability at 2.5 µM / viability at 25 µM: Homo sapiens, MDA-MB-231, read-out: % Viability of spheres (MDAMB231); for 3D sphere count of MDAMB231: Mammosphere media, 2000 cells/well, n = 6 ± S.D
Procedure: In Vitro Sphere-forming Assay: Sphere assay measures the ability of cancer stem cells (CSCs) to form spheres in specially designed serum-free medium.
Mammosphere Media Preparation (For 100 mL): 1 g methyl cellulose autoclaved with magnetic stirrer, 100 ml plain media (MEBM) was added and dissolved under magnetic stirring. After complete dissolution FGF-80 μL, EGF-40 μL, Penstrep-1 mL, Heparin-400 μL was added.
Procedure—The cells were trypsinised and made into single-cell suspension by passing through cell strainers (100 μl and 40 μl, respectively), The cells were diluted at a concentration of 2000 cells/100 μL and suspended in either Mammosphere (for breast cell lines) or Prostosphere (for prostate cell lines). 100 μL of this suspension was added into each well of 96-well suspension plates and incubated at 37° C., 5% CO2 for 24 hrs. Appropriate concentrations of the drugs (2 μL) were added into respective wells with 100 μL of stem cell culture medium. Plates were incubated at 37° C., 50 CO2 for 72 hrs. After incubation, 2.5 μL of the respective drug concentration and 50 μL of stem cell culture medium were added into each well and the plates were further incubated at 37° C., 50% CO2 for 72 hrs. 3 μL of the respective drug concentration was added with 50 μL of stem cell culture medium again after incubation and plates were reincubated for 72 hrs at 37° C., 50 CO2. Number of primary spheres formed for each concentration were counted. The spheres were converted to 0 viability of spheres compared to untreated (Growth Control with DMSO, GCD).

PC3 [6] = experiment: In vitro sphere-forming assay (cancer stem cells), Prostosphere media; details: for viability at 0.0025 µM / viability at 0.025 µM / viability at 0.25 µM / viability at 2.5 µM / viability at 25 µM: Homo sapiens, PC-3, read-out: % Viability of spheres (PC3); for 3D sphere count of PC3: Prostosphere media, 2000 cells/well, n = 6 ± S.D

Structure (SMILES)	IC50 (MDAMB231 [1]) [µM]	IC50 (PC3 [2]) [µM]	anticancer activity in comparison with cisplatin, soft agar, breast cancer cell line (MDAMB231 [3])	IC50 (MDAMB231 [3]) [µM]	anticancer activity in comparison with cisplatin, soft agar, prostate cancer cell line (PC3 [4])	IC50 (PC3 [4]) [µM]	viability at 0.0025 µM (MDAMB231 [5]) [%]	viability at 0.025 µM (MDAMB231 [5]) [%]	viability at 0.25 µM (MDAMB231 [5]) [%]	viability at 2.5 µM (MDAMB231 [5]) [%]	viability at 25 µM (MDAMB231 [5]) [%]	3D sphere count of MDAMB231 (MDAMB231 [5]; drug 0.0025 uM)	3D sphere count of MDAMB231 (MDAMB231 [5]; drug 0.025 uM)	3D sphere count of MDAMB231 (MDAMB231 [5]; drug 0.25 uM)	3D sphere count of MDAMB231 (MDAMB231 [5]; drug 2.5 uM)	3D sphere count of MDAMB231 (MDAMB231 [5]; drug 25 uM)	viability at 0.0025 µM (PC3 [6]) [%]	viability at 0.025 µM (PC3 [6]) [%]	viability at 0.25 µM (PC3 [6]) [%]	viability at 2.5 µM (PC3 [6]) [%]	also measured
COc1ccc(NC2=CC(=O)c3c(OCCCCN4CCOCC4)cccc3C2=O)cc1OC [Formula 41]	3.06	2.73	higher anticancer activity in comparison with cisplatin	1.63	higher anticancer activity in comparison with cisplatin	2.67	86	70	52	34	19	66(±4)	54(±4)	40(±3)	26(±3)	15(±3)	85	72	54	46	Activity on Lymphocytes (IC50) (Human lymphocytes): No activity; viability at 25 µM (PC3 [6]): 27%; 3D sphere count of PC3 (PC3 [6]; drug 0.0025 uM): 74(±4); 3D sphere count of PC3 (PC3 [6]; drug 0.025 uM): 63(±3); 3D sphere count of PC3 (PC3 [6]; drug 0.25 uM): 47(±5); 3D sphere count of PC3 (PC3 [6]; drug 2.5 uM): 40(±4); 3D sphere count of PC3 (PC3 [6]; drug 25 uM): 24(±4)
O=C1C=C(OCCCCN2CCOCC2)C(=O)c2ccccc21 [Formula 67]	3.09	4.11	higher anticancer activity in comparison with cisplatin	3.17	higher anticancer activity in comparison with cisplatin	2.21	80	69	56	48	37	67(±2)	58(±3)	47(±5)	40(±5)	31(±2)	70	64	51	44	IC50 (Human lymphocytes): 5.15 µM; viability at 25 µM (PC3 [6]): 36%; 3D sphere count of PC3 (PC3 [6]; drug 0.0025 uM): 61(±5); 3D sphere count of PC3 (PC3 [6]; drug 0.025 uM): 56(±3); 3D sphere count of PC3 (PC3 [6]; drug 0.25 uM): 45(±3); 3D sphere count of PC3 (PC3 [6]; drug 2.5 uM): 39(±2); 3D sphere count of PC3 (PC3 [6]; drug 25 uM): 32(±3)
O=C1C=C(OCCCCCCN2CCOCC2)C(=O)c2ccccc21 [Formula 68]	3.18	4.73	higher anticancer activity in comparison with cisplatin	2.37	higher anticancer activity in comparison with cisplatin	2.53	62	53	47	39	32	54(±2)	47(±2)	39(±3)	33(±2)	27(±2)	62	55	41	31	IC50 (Human lymphocytes): 5.58 µM; viability at 25 µM (PC3 [6]): 24%; 3D sphere count of PC3 (PC3 [6]; drug 0.0025 uM): 54(±4); 3D sphere count of PC3 (PC3 [6]; drug 0.025 uM): 48(±3); 3D sphere count of PC3 (PC3 [6]; drug 0.25 uM): 36(±3); 3D sphere count of PC3 (PC3 [6]; drug 2.5 uM): 27(±2); 3D sphere count of PC3 (PC3 [6]; drug 25 uM): 21(±2)
O=C1C(Nc2ccc3c(c2)OCO3)=CC(=O)c2c(OCC(=O)N3CCOCC3)cccc21 [Formula 71]	1.35	3.55	higher anticancer activity in comparison with cisplatin	1.79	higher anticancer activity in comparison with cisplatin	3.31	79	64	53	34	13	65(±5)	53(±4)	44(±4)	28(±3)	11(±2)	95	65	52	37	IC50 (Human lymphocytes): 25.2 µM; viability at 25 µM (PC3 [6]): 20%; 3D sphere count of PC3 (PC3 [6]; drug 0.0025 uM): 65(±5); 3D sphere count of PC3 (PC3 [6]; drug 0.025 uM): 53(±4); 3D sphere count of PC3 (PC3 [6]; drug 0.25 uM): 44(±4); 3D sphere count of PC3 (PC3 [6]; drug 2.5 uM): 28(±3); 3D sphere count of PC3 (PC3 [6]; drug 25 uM): 11(±2)
